Measured values reported in US7902144B2, “Therapeutic and diagnostic ligand systems comprising transport molecule binding properties and medicaments containing the same” (KTB Tumorforschungsgesellschaft mbH, priority 2000, dated 2011).

What was measured:
[1] = biological target: T1, human serum albumin (HSA) (Homo sapiens, UniProt P02768); assay: Binding constants relative to HSA by equilibrium dialysis (Scatchard plot); conditions: pH 7.4, Scatchard plot
T1 construct: purchased Dessau company, Germany
From the text: A Scatchard plot is used to determine the binding constants relative to human serum albumin (HSA from the Dessau company, Germany) at pH 7.4 by means of equilibrium dialysis (equilibrium dialyzer from Spectrum, Inc., USA; dialysis membrane: cut-off MW 10000) for the prepared doxorubicin derivatives, all including an acid-labile hydrazone bond as the predetermined breaking point, and for doxorubicin.

transferrin = transferrin (Homo sapiens, UniProt P02787); assay: Incubation with transferrin followed by size-exclusion chromatography (Sephadex G-25); type: binding
HSA = HSA (Homo sapiens, UniProt P02768); assay: Incubation with HSA followed by size-exclusion chromatography (Sephadex G-25); type: binding; conditions: incubation of only a few seconds with HSA (or blood plasma), mole ratio 1:1, Sephadex G-25
[2] = biological target: T1, human serum albumin (HSA); assay: Binding constant relative to HSA as stated in text
From the text: Thus BC-DOX1, after being brought into contact with HSA or after injection into the bloodstream, is tightly bound to that blood protein. Since BC-DOX1 in addition has a sulfonylhydrazone bond as an acid-labile bond between the carrier-molecule-affinitive substance and the cytostatic agent, in the acid environment of tumor tissue or in the acid intracellular compartments of the tumor cell, doxorubicin is released as the active substance so it can exert its therapeutic effect there.

[3] = biological target: T1, human serum albumin (HSA); conditions: Literature value (Demant et al., Biochemical Pharmacology 55, 27-32, 1998); cited from earlier work

T1 sequence (P02768 25-609): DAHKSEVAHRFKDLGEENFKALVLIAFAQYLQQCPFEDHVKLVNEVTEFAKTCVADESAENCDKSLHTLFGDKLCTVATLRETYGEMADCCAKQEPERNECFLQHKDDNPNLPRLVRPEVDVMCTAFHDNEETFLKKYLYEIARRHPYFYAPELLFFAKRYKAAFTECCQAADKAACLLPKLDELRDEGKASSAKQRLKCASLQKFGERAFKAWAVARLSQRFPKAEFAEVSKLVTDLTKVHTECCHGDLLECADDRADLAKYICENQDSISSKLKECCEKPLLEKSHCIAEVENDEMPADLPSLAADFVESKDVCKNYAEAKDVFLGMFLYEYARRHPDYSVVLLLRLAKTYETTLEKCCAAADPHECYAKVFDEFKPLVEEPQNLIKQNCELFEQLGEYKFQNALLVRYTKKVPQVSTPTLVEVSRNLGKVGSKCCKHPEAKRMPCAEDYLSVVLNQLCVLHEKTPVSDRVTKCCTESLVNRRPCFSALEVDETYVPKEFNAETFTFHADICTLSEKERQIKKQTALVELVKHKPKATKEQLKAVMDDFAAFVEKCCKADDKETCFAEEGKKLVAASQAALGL
Sequence of HSA (P02768 25-609): as above
Sequence of transferrin (P02787 20-698, species assumed): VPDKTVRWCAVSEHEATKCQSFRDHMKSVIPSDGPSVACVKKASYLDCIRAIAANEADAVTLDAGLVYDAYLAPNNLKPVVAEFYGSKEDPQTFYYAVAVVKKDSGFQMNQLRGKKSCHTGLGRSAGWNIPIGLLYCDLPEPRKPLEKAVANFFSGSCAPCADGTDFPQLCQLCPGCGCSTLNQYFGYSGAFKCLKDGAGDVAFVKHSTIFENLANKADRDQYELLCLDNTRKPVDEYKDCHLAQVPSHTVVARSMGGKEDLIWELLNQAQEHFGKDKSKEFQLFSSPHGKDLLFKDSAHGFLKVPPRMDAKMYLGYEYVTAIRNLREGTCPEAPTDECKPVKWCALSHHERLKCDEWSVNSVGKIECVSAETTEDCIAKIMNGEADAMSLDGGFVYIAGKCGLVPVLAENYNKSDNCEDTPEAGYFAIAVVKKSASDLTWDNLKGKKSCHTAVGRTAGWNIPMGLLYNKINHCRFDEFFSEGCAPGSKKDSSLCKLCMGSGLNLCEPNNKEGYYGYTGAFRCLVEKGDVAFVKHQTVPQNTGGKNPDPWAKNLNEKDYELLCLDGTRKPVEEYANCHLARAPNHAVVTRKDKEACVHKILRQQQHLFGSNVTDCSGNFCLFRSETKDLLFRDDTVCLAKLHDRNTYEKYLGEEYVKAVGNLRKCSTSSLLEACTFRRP

Structure (SMILES) | KA relative to HSA [1] | behavior in size-exclusion chromatography after incubation with HSA (HSA) | other results
CCCCCCCCCCCCCCCCCC(=O)N/N=C(\CO)[C@@]1(O)Cc2c(O)c3c(c(O)c2[C@@H](O[C@H]2CC(N)[C@H](O)C(C)O2)C1)C(=O)c1c(OC)cccc1C3=O (stereo partly drawn) [DOXO-SAH] | 6.1 × 10^6 |  | 
Cc1c(C2(c3cc(Br)c(O)c(Br)c3C)OS(=O)(=O)c3ccccc32)cc(Br)c(O)c1Br [Bromcresol green, reference compound] |  | elute together with HSA | affinity for other plasma proteins (transferrin): do not exhibit high affinity
COc1cccc2c1C(=O)c1c(O)c3c(c(O)c1C2=O)C[C@](O)(/C(CO)=N/NC(=O)CCOCCOCCOCCOCCOCCOCCNS(=O)(=O)c1ccc2c(N=Nc4ccccc4)c(O)ccc2c1)C[C@@H]3O[C@H]1CC(N)[C@H](O)C(C)O1 (stereo partly drawn) [DOXO-CROC-HEXA] | 7.2 × 10^7 |  | 
COc1cccc2c1C(=O)c1c(O)c3c(c(O)c1C2=O)C[C@](O)(/C(CO)=N/NC(=O)CCOCCOCCOCCOCCOCCOCCNC(=O)c1cc(I)cc(I)c1I)C[C@H]3O[C@H]1CC(N)[C@H](O)C(C)O1 (stereo partly drawn) [DOXO-TIB-HEXA] | 5.5 × 10^5 |  | 
COc1cccc2c1C(=O)c1c(O)c3c(c(O)c1C2=O)C[C@@](O)(/C(CO)=N/NS(=O)(=O)c1ccccc1/C(=C1/C=C(Br)C(=O)C(Br)=C1C)c1cc(Br)c(O)c(Br)c1C)C[C@@H]3O[C@H]1CC(N)[C@H](O)C(C)O1 (stereo partly drawn) [BC-DOX1] |  | behavior like that of bromcresol green or bromcresol green sulfonic acid | binding constant relative to human serum albumin compared with free doxorubicin [2]: several orders of magnitude greater
COc1cccc2c1C(=O)c1c(O)c3c(c(O)c1C2=O)C[C@@](O)(C(=O)CO)C[C@@H]3O[C@H]1C[C@H](N)[C@H](O)[C@H](C)O1 [Doxorubicin, doxorubicin, reference compound] | 2.9 × 10^3 |  | KA relative to HSA, literature value [3]: 2.7 × 10^3
